Reference: the NIST ThermoML archive (doi:10.1016/j.jct.2012.02.011)

Assay: relative permittivity at various frequencies (dimensionless); xn = mol fraction of the nth substance listed
Conditions: 101.33 kPa, Liquid, Frequency=3 MHz, OH-301

CCCCOCCO [2-butoxyethan-1-ol] + O=[N+]([O-])c1ccccc1
relative permittivity
Conditions | 293.15 K | 298.15 K | 303.15 K | 308.15 K | 313.15 K
x2 = 0 | 9.78 | 9.35 | 8.88 | 8.39 | 7.91
x2 = 0.05 | 12.73 | 11.87 | 11.04 | 10.26 | 9.54
x2 = 0.0999 | 15.28 | 14.32 | 13.35 | 12.37 | 11.45
x2 = 0.2003 | 19.6 | 18.58 | 17.59 | 16.63 | 15.76
x2 = 0.3 | 23.44 | 22.39 | 21.39 | 20.42 | 19.59
x2 = 0.4 | 27 | 25.85 | 24.78 | 23.77 | 22.92
x2 = 0.5 | 30.19 | 28.96 | 27.82 | 26.74 | 25.84
x2 = 0.6 | 32.88 | 31.6 | 30.44 | 29.34 | 28.49
x2 = 0.7 | 34.91 | 33.59 | 32.5 | 31.36 | 30.53
x2 = 0.7493 | 35.71 | 34.34 | 33.12 | 32.06 | 31.22
x2 = 0.8 | 36.29 | 34.85 | 33.69 | 32.47 | 31.69
x2 = 0.8506 | 36.65 | 35.21 | 33.91 | 32.79 | 31.92
x2 = 0.9 | 36.77 | 35.26 | 33.96 | 32.85 | 32.04
x2 = 0.9499 | 36.52 | 35.09 | 33.86 | 32.84 | 32.1

CCOCCO [2-ethoxyethan-1-ol] + O=[N+]([O-])c1ccccc1
relative permittivity
Conditions | 293.15 K | 298.15 K | 303.15 K | 308.15 K | 313.15 K
x2 = 0 | 14.25 | 14.03 | 13.76 | 13.44 | 13.07
x2 = 0.0499 | 16.23 | 15.75 | 15.23 | 14.71 | 14.17
x2 = 0.0997 | 18.22 | 17.59 | 16.95 | 16.29 | 15.64
x2 = 0.2 | 21.92 | 21.16 | 20.41 | 19.67 | 18.98
x2 = 0.3002 | 25.24 | 24.4 | 23.54 | 22.77 | 22
x2 = 0.4001 | 28.2 | 27.24 | 26.32 | 25.46 | 24.66
x2 = 0.5 | 30.85 | 29.8 | 28.81 | 27.95 | 27.13
x2 = 0.6003 | 33.21 | 32.07 | 31.07 | 30.15 | 29.38
x2 = 0.7 | 34.94 | 33.75 | 32.71 | 31.81 | 31.04
x2 = 0.7491 | 35.66 | 34.39 | 33.29 | 32.33 | 31.52
x2 = 0.7996 | 36.11 | 34.77 | 33.6 | 32.6 | 31.76
x2 = 0.8504 | 36.37 | 35 | 33.73 | 32.69 | 31.81
x2 = 0.9001 | 36.43 | 34.99 | 33.69 | 32.64 | 31.79
x2 = 0.9456 | 36.26 | 34.87 | 33.66 | 32.67 | 31.9

CCCOCCO [2-propoxyethanol] + O=[N+]([O-])c1ccccc1
relative permittivity
Conditions | 293.15 K | 298.15 K | 303.15 K | 308.15 K | 313.15 K
x2 = 0 | 11.76 | 11.5 | 11.19 | 10.91 | 10.62
x2 = 0.0497 | 14.29 | 13.73 | 13.13 | 12.57 | 12.02
x2 = 0.1008 | 16.55 | 15.87 | 15.15 | 14.52 | 13.88
x2 = 0.2 | 20.53 | 19.71 | 18.92 | 18.2 | 17.54
x2 = 0.3004 | 24.06 | 23.14 | 22.27 | 21.5 | 20.81
x2 = 0.4 | 27.18 | 26.2 | 25.26 | 24.45 | 23.7
x2 = 0.5 | 30.06 | 28.98 | 27.97 | 27.11 | 26.32
x2 = 0.6008 | 32.56 | 31.43 | 30.36 | 29.47 | 28.73
x2 = 0.6997 | 34.55 | 33.33 | 32.27 | 31.35 | 30.61
x2 = 0.7489 | 35.32 | 34.05 | 32.96 | 32.01 | 31.26
x2 = 0.8 | 35.94 | 34.57 | 33.43 | 32.48 | 31.69
x2 = 0.8499 | 36.33 | 34.95 | 33.75 | 32.73 | 31.91
x2 = 0.9004 | 36.49 | 35.1 | 33.86 | 32.83 | 32.03
x2 = 0.9488 | 36.3 | 34.95 | 33.8 | 32.85 | 32.14

O=[N+]([O-])c1ccccc1 [nitrobenzene] + COCCO
relative permittivity
Conditions | 293.15 K | 298.15 K | 303.15 K | 308.15 K | 313.15 K
x1 = 0.0505 | 19.13 | 18.51 | 17.93 | 17.37 | 16.82
x1 = 0.1011 | 20.66 | 19.96 | 19.31 | 18.66 | 18.05
x1 = 0.2003 | 23.41 | 22.63 | 21.89 | 21.19 | 20.56
x1 = 0.3003 | 25.97 | 25.12 | 24.31 | 23.59 | 22.96
x1 = 0.4002 | 28.41 | 27.45 | 26.59 | 25.84 | 25.16
x1 = 0.4998 | 30.69 | 29.62 | 28.69 | 27.94 | 27.22
x1 = 0.5997 | 32.75 | 31.57 | 30.58 | 29.81 | 29.09
x1 = 0.7001 | 34.4 | 33.23 | 32.18 | 31.31 | 30.59
x1 = 0.752 | 35.1 | 33.87 | 32.8 | 31.91 | 31.17
x1 = 0.8004 | 35.62 | 34.35 | 33.24 | 32.3 | 31.54
x1 = 0.8491 | 36.03 | 34.74 | 33.57 | 32.61 | 31.8
x1 = 0.8974 | 36.21 | 34.89 | 33.72 | 32.76 | 32
x1 = 0.9502 | 36.26 | 34.94 | 33.8 | 32.88 | 32.2
x1 = 1 | 35.91 | 34.78 | 33.84 | 33.13 | 32.66
